Experimental data as given in US4687843A, “Esterified propoxylated glucose compositions” (Amerchol Corporation, priority 1986, dated 1987).

Experiments:
rabbits (eye) = conditions: rabbit, in vivo
rabbits (dermal) = conditions: rabbit, in vivo
[1] = in vivo

- Draize test score (rabbits (eye)): negligible
- Comedogenic Assay [1]: Non-comedogenic
Substance: PPG-20 Methyl Glucose Ether Distearate
- Eye irritation (rabbits (eye)): Practically non-irritating
- Primary dermal irritant (rabbits (dermal)): not a primary dermal irritant
- Primary dermal irritation (rabbits (dermal)): Not a primary dermal irritant
